We go through 1 compound from publication PMC11903733 (Frontiers in Pharmacology, 2025).

One experiment has as its target T1, LSD2 (Homo sapiens, UniProt Q8NB78).
T1 construct: full-length LSD2; by word order LSD2 from ActiveMotif
T1 sequence (Q8NB78 1-822): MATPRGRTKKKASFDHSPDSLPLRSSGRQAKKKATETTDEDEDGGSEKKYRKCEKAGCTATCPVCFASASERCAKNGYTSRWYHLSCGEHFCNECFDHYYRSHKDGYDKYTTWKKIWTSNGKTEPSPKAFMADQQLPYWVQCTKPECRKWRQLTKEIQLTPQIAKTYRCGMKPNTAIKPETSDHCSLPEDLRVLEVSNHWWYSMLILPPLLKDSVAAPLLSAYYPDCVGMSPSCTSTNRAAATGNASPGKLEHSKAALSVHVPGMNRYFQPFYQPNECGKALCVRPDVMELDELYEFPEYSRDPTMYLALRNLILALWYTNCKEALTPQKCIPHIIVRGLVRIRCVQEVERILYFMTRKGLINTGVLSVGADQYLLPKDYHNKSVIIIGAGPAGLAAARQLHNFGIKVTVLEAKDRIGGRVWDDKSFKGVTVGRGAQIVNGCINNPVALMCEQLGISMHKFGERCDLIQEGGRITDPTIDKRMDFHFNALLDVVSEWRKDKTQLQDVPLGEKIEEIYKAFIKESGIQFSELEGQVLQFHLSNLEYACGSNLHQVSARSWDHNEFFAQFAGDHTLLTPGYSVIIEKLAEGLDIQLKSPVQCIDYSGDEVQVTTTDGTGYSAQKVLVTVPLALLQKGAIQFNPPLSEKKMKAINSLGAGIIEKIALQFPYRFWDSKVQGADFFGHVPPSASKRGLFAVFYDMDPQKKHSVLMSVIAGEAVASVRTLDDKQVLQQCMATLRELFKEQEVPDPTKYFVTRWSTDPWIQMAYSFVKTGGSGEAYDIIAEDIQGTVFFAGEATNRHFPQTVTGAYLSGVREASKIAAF
The experiment can be described thus: Lance Ultra demethylase TR-FRET enzyme inhibition assay, LSD2. It is filed as biochemical. To be noted: full-length LSD2 172 nM, Bio-H3K4me2 substrate, 1 h, mean ± SD, n = 3. The text has this:
(§1) These were utilized in both in vitro and in vivo assays. Iscove’s Modified Dulbecco’s Medium (IMDM), Roswell Park Memorial Institute (RPMI)-1640 medium, fetal bovine serum (FBS) and penicillin/streptomycin were purchased from Gibco (Grand Island, New Nork, United States). Recombinant human LSD1 (172–852 aa) and full-length LSD2 were obtained from Sino Biological Inc. and ActiveMotif.
(§2) The inhibitory effects of the tested compounds on LSD1 and LSD2 enzymes were methodically assessed using the Lance Ultra LSD1 Histone H3-Lysine 4 Demethylase Assay Kit from PerkinElmer, adhering to previously published methodologies ([Li et al., 2022]). In brief, the reaction was initiated by adding 4 μL of enzyme solution, with concentrations specified at 2 nM for LSD1 or 172 nM for LSD2, 4 μL of substrate solution [2.5 μM Bio-H3K4me2 ([…])], and 2 μL of tested compound to a Tris buffer (50 mM Tris-HCl, 50 mM NaCl, 0.01% Tween 20, 1 mM DTT, 10 μM FAD, 10% glycerol, pH 9.0) at room temperature and incubated for 1 h. Following the incubation, 5 μL of a detection mixture, comprising an Eu-labeled H3K4me0 antibody and ULight Streptavidin, was added to the reaction. The fluorescence intensity was then measured employing TR-FRET mode with excitation and emission wavelengths set at 320 nm and 665 nm, respectively, utilizing the Envision (PerkinElmer) system. Each experiment was performed in triplicate.
On the technique in general: Time-resolved FRET reads energy transfer from a long-lived donor to a nearby acceptor.

Another experiment has as its system MV-4-11 cells. Put plainly: MTS cell proliferation assay. It is filed as cell-based. To be noted: Homo sapiens, MV4-11, LSD1-addicted MV-4-11 leukemia cells, 72 h. The procedure:
(§3) The myeloid leukemia cell lines MV-4-11, MOLT-4, MOLM-16, HL-60, and the human B lymphocyte cell line […] were purchased from the American Type Culture Collection (ATCC, Manassas, VA, United States). The myeloid leukemia cell line HAL-01 was obtained from the Deutsche Sammlung von Mikroorganismen und Zellkulturen GmbH (DSMZ, Braunschweig, Germany). All cells were cultured in IMDM or RPMI -1640 medium supplemented with 10% FBS, 100 U/mL penicillin, and 100 μg/mL streptomycin. The cells were maintained in a humidified incubator with an atmosphere of 5% CO2 at 37°C.
(§4) The in vitro anti-proliferative activity of the compounds was determined using the CellTiter 96® AQueous NonRadioactive Cell Proliferation Assay Kit (Promega, Madison, United States) as previously described ([Ji et al., 2017]). In brief, 5–10 × 10^3 cells and 180 μL of medium were first seeded into each well of a 96-well plate. Subsequently, the cells were exposed to either 0.2% Dimethyl sulfoxide (DMSO, Aladdin Reagent, Shanghai, China) or a serial dilution of the compounds, prepared from a 10 mM stock solution in DMSO, with the final concentration of DMSO being 0.2% for 72 h. 20 μL of MTS reagent was added to each well, and the culture was incubated in the dark at 37°C for 4 h. Finally, the optical density (OD) was then recorded at 490 nm and 690 nm using a microplate reader from Molecular Devices. The proliferation inhibition rate was calculated according to the following formula: inhibition ratio = (OD of DMSO treated wells - OD of compound treated wells)/(OD of DMSO treated wells - OD of blank wells) × 100%. The IC50 values of the compounds inhibiting cell proliferation were calculated using GraphPad Prism 10 (GraphPad Software Inc., San Diego, CA).
A general note: Tetrazolium assays rely on reduction of a dye to a coloured formazan, in cell work by metabolically active cells.

Another experiment concerns RPMI-8226 cells. The experiment can be described thus: MTS cell proliferation assay. It is filed as cell-based. To be noted: Homo sapiens, LSD1-non-sensitive RPMI-8226 cells, 72 h. The procedure: as §3, §4
The next experiment deals with T2, LSD1 (Homo sapiens, UniProt O60341).
T2 construct: Recombinant human LSD1 (172–852 aa); by word order LSD1 from Sino Biological
The experiment can be described thus: Lance Ultra LSD1 demethylase TR-FRET enzyme inhibition assay. Format: biochemical. To be noted: recombinant human LSD1 (172–852 aa) 2 nM, Bio-H3K4me2 substrate, 1 h, TR-FRET; mean ± SD, n = 3.
Text: as §1, §2

For a further experiment, the target named is 60 different kinases. The experiment can be described thus: SelectScreen kinase profiling, whole panel. It is filed as biochemical. The following applies: ten-point dilution 0.25 μM to 128 μM; read-out: IC50 against each of the 60 evaluated kinases. The procedure: The kinase selectivity analysis of LTM-1 was performed utilizing the SelectScreen Kinase Profiling Service offered by Thermo Fisher Scientific. In a dose-response assay featuring a ten-point dilution series from 0.25 μM to 128 μM, the inhibitory effects of LTM-1 on substrate phosphorylation reactions catalyzed by a panel of kinases were assessed. Consequently, the half-maximal inhibitory concentrations (IC50 values) for each kinase were determined.

Molecules are shown by their SMILES.

Usually IC50 stands for the concentration that gives 50% inhibition. In the case of `O=S(=O)(c1ccc(C(O)CO)c(C(F)(F)F)c1)N1CCc2cc(C3CC3NCC3CCNCC3)ccc21` (centres unmarked) [LTM-1], the IC50 was over 5000 nM on LSD2; 0.16 ± 0.01 µM in the experiment on MV-4-11 cells; over 100 µM in the experiment with RPMI-8226 cells; 2.11 ± 0.14 nM at LSD1; over 10000 nM on 60 different kinases.
